The values that follow come from US10273262B2, “Crystalline form A of obeticholic acid and preparation method thereof” (CRYSTAL PHARMATECH CO., LTD., priority 2014, dated 2019).

The conditions of the data set: ethyl acetate and n-heptane 1:9, 25° C., 500 rpm, 24 hours.

Description: X-ray powder diffraction pattern in the present invention was acquired by a Panalytical Empyrean X-ray powder diffractometer. The parameters of the X-ray powder diffraction method of the present invention were as follows: • X-ray Reflection: Cu, Kα • Kα1 (Å): 1.540598; Kα2 (Å): 1.544426 • Kα2/Kα1 intensity ratio: 0.50 • Voltage: 45 (kV) • Current: 40 (mA) • Scan range: from 3.0 degree to 40.0 degree The pattern of differential scanning calorimetry (DSC) in the present invention was acquired by a TA Q200. The parameters of the differential scanning calorimetry (DSC) method of the present invention were as follow: • Heating rate: 10° C./min • Purge gas: nitrogen. The pattern of thermal gravimetric analysis (TGA) in the present invention was acquired by a TA Q5000. The parameters of the thermal gravimetric analysis (TGA) method of the present invention were as follow: • Heating rate: 10° C./min; • Purge gas: nitrogen.
The suspension was stirred at 500 rpm in a thermostat at 25° C. for 24 hours, and centrifuged to give a solid which was tested by XRPD.

As for `CC[C@H]1[C@@H](O)[C@@H]2[C@H](CC[C@]3(C)[C@@H]([C@H](C)CCC(=O)O)CC[C@@H]23)[C@@]2(C)CC[C@@H](O)C[C@@H]12` [Form C, obeticholic acid], the “Crystal form after stirring the suspension (form conversion by XRPD)” value is “transferred to crystalline Form A”.
